# Tests used:
# [1] = target: T1, Alpha-2C adrenergic receptor (Homo sapiens, UniProt P18825); test: Antagonist activity at human recombinant adrenergic Alpha-2C receptor expressed in CHO cells assessed as inhibition of NE-induced calcium mobilization by FLIPR; type: functional, cell-based
# T1 sequence (P18825 whole entry): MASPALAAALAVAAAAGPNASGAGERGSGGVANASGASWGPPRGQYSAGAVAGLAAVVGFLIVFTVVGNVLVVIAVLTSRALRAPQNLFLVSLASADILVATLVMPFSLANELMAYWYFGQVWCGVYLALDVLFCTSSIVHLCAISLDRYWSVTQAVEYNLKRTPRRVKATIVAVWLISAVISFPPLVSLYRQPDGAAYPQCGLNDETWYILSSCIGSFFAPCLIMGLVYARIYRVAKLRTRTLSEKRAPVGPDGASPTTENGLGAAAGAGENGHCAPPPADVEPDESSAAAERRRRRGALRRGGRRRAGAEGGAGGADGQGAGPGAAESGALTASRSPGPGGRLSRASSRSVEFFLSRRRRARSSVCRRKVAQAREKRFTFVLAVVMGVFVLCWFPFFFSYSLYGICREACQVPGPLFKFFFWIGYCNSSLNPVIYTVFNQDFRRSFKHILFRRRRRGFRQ
# Homo sapiens [2] = species on record: Homo sapiens; test: Selectivity for human recombinant adrenergic Alpha-2C receptor over human recombinant adrenergic alpha2B receptor by radioligand binding assay
# [3] = target: T2, Alpha-2A adrenergic receptor (Homo sapiens, UniProt P08913); test: Binding affinity at human recombinant adrenergic alpha2A receptor expressed in CHO cells by radioligand binding assay; type: cell-based
# T2 sequence (P08913 whole entry): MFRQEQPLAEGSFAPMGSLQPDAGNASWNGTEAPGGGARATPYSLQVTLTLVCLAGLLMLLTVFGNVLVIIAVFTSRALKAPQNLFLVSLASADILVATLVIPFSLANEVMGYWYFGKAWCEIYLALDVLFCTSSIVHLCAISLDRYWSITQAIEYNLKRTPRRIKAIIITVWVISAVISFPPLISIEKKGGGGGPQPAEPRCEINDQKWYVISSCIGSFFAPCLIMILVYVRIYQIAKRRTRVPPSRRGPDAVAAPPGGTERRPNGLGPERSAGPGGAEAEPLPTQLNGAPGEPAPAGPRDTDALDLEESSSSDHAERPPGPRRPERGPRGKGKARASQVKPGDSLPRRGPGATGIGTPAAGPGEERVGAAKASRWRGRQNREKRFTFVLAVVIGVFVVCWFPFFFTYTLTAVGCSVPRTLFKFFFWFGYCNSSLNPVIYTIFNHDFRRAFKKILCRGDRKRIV
# [4] = target: T1, Alpha-2C adrenergic receptor; test: Binding affinity at human recombinant adrenergic Alpha-2C receptor expressed in CHO cells by radioligand binding assay; type: cell-based
# [5] = target: T2, Alpha-2A adrenergic receptor; test: Antagonist activity at human recombinant adrenergic alpha2A receptor expressed in CHO cells assessed as inhibition of NE-induced calcium mobilization by FLIPR; type: functional, cell-based
# Homo sapiens [6] = species on record: Homo sapiens; test: Selectivity for human recombinant adrenergic Alpha-2C receptor over human recombinant adrenergic alpha2A receptor by radioligand binding assay
# Homo sapiens [7] = species on record: Homo sapiens; test: Selectivity human recombinant adrenergic Alpha-2C receptor over human recombinant adrenergic alpha2A receptor by FLIPR
# [8] = target: T3, Alpha-2B adrenergic receptor (Homo sapiens, UniProt P18089); test: Antagonist activity at human recombinant adrenergic alpha2B receptor expressed in CHO cells assessed as inhibition of NE-induced calcium mobilization by FLIPR; type: functional, cell-based
# T3 sequence (P18089 whole entry): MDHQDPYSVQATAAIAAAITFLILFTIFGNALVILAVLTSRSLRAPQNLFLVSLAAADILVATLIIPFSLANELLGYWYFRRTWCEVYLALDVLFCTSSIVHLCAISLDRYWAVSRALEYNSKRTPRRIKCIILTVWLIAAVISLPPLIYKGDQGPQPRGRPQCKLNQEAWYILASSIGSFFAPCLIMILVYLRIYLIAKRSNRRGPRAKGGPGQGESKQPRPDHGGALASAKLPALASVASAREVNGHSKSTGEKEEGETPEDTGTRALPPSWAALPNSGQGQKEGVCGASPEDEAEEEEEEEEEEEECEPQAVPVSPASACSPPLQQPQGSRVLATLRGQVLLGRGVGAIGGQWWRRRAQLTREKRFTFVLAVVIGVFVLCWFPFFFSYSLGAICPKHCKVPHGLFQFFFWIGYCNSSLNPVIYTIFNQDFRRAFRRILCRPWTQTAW
# Homo sapiens [9] = species on record: Homo sapiens; test: Selectivity human recombinant adrenergic Alpha-2C receptor over human recombinant adrenergic alpha2B receptor by FLIPR
# [10] = target: T3, Alpha-2B adrenergic receptor; test: Binding affinity at human recombinant adrenergic alpha2B receptor expressed in CHO cells by radioligand binding assay; type: cell-based
SMILES,Ki [1] [nM],Ratio Ki (Homo sapiens [2]),Ki [3] [nM],Ki [4] [nM],Ki [5] [nM],Ratio Ki (Homo sapiens [6]),Ratio Ki (Homo sapiens [7]),Ki [8] [nM],Ratio Ki (Homo sapiens [9]),Ki [10] [nM]
c1ccc(CN2CCN(CC3CCc4ccccc4O3)CC2)cc1 (stereo not given),21.1,4,146,19.6,167,7,8,180,9,72.8
COc1ccccc1N1CCN(CC2COc3ccccc3O2)CC1 (stereo not given),23,6,506,33,167,15,7,17,1,194
CCCCOc1cccc(C(=O)NCCN2CCCN(CC3COc4ccccc4O3)CC2)n1 (stereo not given),3.8,18,118,0.6,48.4,195,13,14.1,4,10.9
O=C(NCCN1CCCN(CC2COc3ccccc3O2)CC1)c1cccnc1 (stereo not given),–,1,443,15.7,–,28,–,–,–,17.9
N#Cc1cccc(Oc2ncccc2C(=O)NCCN2CCCN(CC3COc4ccccc4O3)CC2)c1 (stereo not given),1.9,48,208,0.8,501,275,262,27.5,14,36

# The next compounds have a lower Ki [3] than those just listed; values first:
Ki [1] [nM],Ratio Ki (Homo sapiens [2]),Ki [3] [nM],Ki [4] [nM],Ki [5] [nM],Ratio Ki (Homo sapiens [6]),Ratio Ki (Homo sapiens [7]),Ki [8] [nM],Ratio Ki (Homo sapiens [9]),Ki [10] [nM],SMILES
6.8,28,66.1,2.5,275,26,41,132,19,69.5,c1ccc(Oc2ncccc2COCCN2CCCN(CC3COc4ccccc4O3)CC2)cc1 (stereo not given)
4.8,13,81,0.8,73.6,103,15,13.3,3,10.5,CCCCOc1ncccc1C(=O)NCCN1CCCN(CC2COc3ccccc3O2)CC1 (stereo not given)
